Earlier results in patent US9955683B2, “Insecticidal apparatus and methods” (priority 2012, dated 2018).

Tests used:
[1] = system: blowfly larvae; conditions: sheep
[2] = ruminants; excretion mainly via the feces

Q: For `O=C(NC(=O)c1c(F)cccc1F)Nc1ccc(Cl)cc1` [Diflubenzuron], which “duration of protection against blowfly strike” value ([1]; emulsifiable concentrate used as a dip or shower, preventive use) is on record?
A: 12-14 wk

Q: Which “duration of protection, blowfly control” value ([1]; pour-on formulation) does the source give for `N#Cc1c(N)nc(NC2CC2)nc1N` [Dicyclanil] here?
A: up to 20 wk

Q: For `Nc1nc(N)nc(NC2CC2)n1` [cyromazine], which “duration for which control of blowfly larvae can be maintained” value ([1]; after a single pour-on application) is on record?
A: up to 13 wk

Q: For Ivermectin, which “fraction of unaltered molecule excreted in the urine” value [2] is on record?
A: < 2%
